# Patent US20160374979A1, “Method of Treatment of Alopecia with Monoterpenoids” (CELLMID LIMITED, priority 2013, published 2016)
# Entries after “also recorded” stand apart in the source; their conditions may differ.
# What was measured:
# [1] = test system: Alkaline Phosphatase (ALP) activity in dermal papilla (DP) cells treated with FGF-5; experiment: Dermal papilla alkaline phosphatase (DP-ALP) cell assay; format: cell-based, human; conditions: for relative ALP activity of DP cells treated FGF-5: 0.005-0.5 mg/ml, GSK3 inhibitor IX + rhFGF-5 1 μg/mL, 3 days, absorbance 490 nm; for FGF-5-inhibitory activity ranked from most active to least active by DP-ALP assay: rank order
# Experimental: Dermal papilla cells were prepared according to the methods described in WO2013/105417, Briefly, hairs were pulled from the scalp of a healthy subject showing normal non-alopecia hair growth using tweezers. Hair follicles with dermal papilla were thus obtained at a rate of approximately one for every 100 hairs pulled. The hair follicles with dermal papilla were separated from the hair using tweezers and transferred into a saline for inspection under a microscope. Under a microscope, each dermal papilla was isolated from a respective hair follicle using tweezers and a scalpel. Approximately 2000 isolated dermal papilla cells were then transferred to a 35 mm cell culture dish together 1-2 ml of cell culture medium, after which time the cells were cultured at 37° C. to produce a primary cell culture of dermal papilla. The cell culture medium consisted of approximately 90% DMEM medium, 10% fetal bovine serum (final concentration: 10%), FGF2 (final, concentration: 10 ng/ml), and penicillin-streptornycin solution (final concentration: 1 μg/ml) for every 2 mL of medium. Cell culture conditions were maintained for more than 14 days until dermal papilla cells covered approximately 40% of the area of the 35 mm culture dish, at which time subcultures were performed. To prepare the subcultures, the cell culture medium was removed from the 35 mm culture dish and the adherent cells were washed once with 2 ml of saline (at room temperature). 1 ml Trypsin-EDTA solution (0.1% trypsin and 0.02% EDTA) was then added to the 35 mm culture dish and left to stand for 4 minutes at 37° C. Dissociated dermal papilla cells were then recovered from the 35 mm dish, and seeded to a new 100 mm dish, and cultured in media under the same conditions as for the primary cell culture described above.
# When the dermal papilla cells covered approximately 70-80% of the area of each 100 mm culture dish, the sub-confluent cells were subcultured as before. The process was repeated until sufficient cells were obtained to screen compounds of interest.
# Once sufficient DP cells were obtained, the cells were harvested to provide a cell suspension. To harvest the DP cells, the cell culture medium was removed from the culture dish, and the adherent cells were washed with saline at room temperature. Trypsin-EDTA solution was then added under conditions described supra to dissociate the cells from the cell culture dish. Approximately 5×10^5 of the dissociated cells were resuspended in 500 ml of assay medium containing 445 ml of DMEM medium, 50 ml of 10% fetal calf serum and 5 ml of antibiotic.
# Aliquots of the cell suspension were transferred to the wells of cell culture dishes, and a single monoterpenoid listed in Example 1 e.g., (−)-4-terpinen-4-ol, (+)-4-terpinen-4-ol. (±)-4-terpinen-4-ol, α-terpineol, nonanal, linalyl acetate or piperitone, is added to each well at a concentration of 0.005 (mg/ml) or 0.01 (mg/ml) or 0.05 (mg/ml) or 0.1 (mg/ml) or 0.5 (mg/ml). Cell suspensions were transferred to wells of a further cell culture dish to which minoxidil was then added at a concentration of 0.005 (mg/ml) or 0.01 (mg/ml) or 0.05 (mg/ml) or 0.1 (mg/ml) or 0.5 (mg/ml). A Wnt/β-catenin pathway activation agent e.g., Wnt3a or GSK-3 Inhibitor IX, as added to each of the cell cultures to produce an “activated cell culture”. Control cell cultures containing the same monoterpenoid compound or minoxodil, but lacking the Wnt/β-cinenin pathway activation agent, were processed in parallel. These activated and control cell cultures were divided further into duplicate cell culture samples either lacking FGF-5 or to which recombinant human FGF-5 (rhFGF-5; 1 μg/mL)) was added.
# The cell culture samples were each cultured at 37° C. for 3 days under atmosphere containing less than 5% CO2. […]
# [2] = test system: FGF-5-dependent cell proliferation (FR-BaF3 cells expressing FGFR-1c); experiment: FR-Ba/F3 cell proliferation/viability assay in the presence of FGF-5 (CCK-8); format: cell-based, murine; conditions: for FGF-5-inhibitory activity (in words): judged from FR-BaF3 result; for Suppression of FGF-5-dependent cell proliferation and viability: FR-BaF3 cells, in words (FIGS. 1(a)-1(h)); for FGF-5 Specificity IL-1/FGF-5: ratio of the IC50 with IL-3 to the IC50 with FGF-5, BR: less reproducible
# Experimental: Ba/F3 is a murine interleukin-3 (IL-3)-dependent pro-B cell line. […] That is, compounds were tested for their ability to modulate proliferation of FR-Ba/F3 cells in the presence of recombinant human FGF-5 (rhFGF-5) prepared according to Maeda et al., Nishi Nihon Hifuka, 69(1): 81-86, 2007.
# Briefly, a suitable plasmid expressing FGFR-1c was introduced into […] ER-Ba/F3 cells, and the cells were maintained in RPMI RPMI-1640 with 10% FBS and 1.3×10^−17 M of murine IL-3 (Sigma, St Louis, […].) containing antibiotic G418 sulfate (Promega, Medison, Wis.). The inventors compared proliferation of FR/BaF3 cells in culture medium containing IL3 or FGF-5 and a different concentration in the range from 0.005% (w/v) to 1.0% (w/v) of each test compound listed in Example 1. The FR-BaF3 cells were seeded at 5×10^4/mL cells per well in 96-well, micro-culture plates (Falcon) in RPMI-1640 culture medium containing 10% fetal bovine serum, 5 μg/mL heparin. Recombinant human FGF-5 (rhFGF-5; 1 μg/mL) was added to one group, and IL-3 (0.2 ng/mL) (Sigma) was added to another group. The test compounds were then introduced to the micro-culture plate wells. Total volume of media per well was 100 μl. Control groups lacking test compound were also prepared for each of the IL-3-supplemented and FGF-5-supplemented samples. The plates were then incubated at 37° C. in 5% CO2 for 3 days.
# After 3 days, colorimetric assays were performed using a Cell Counting Kit-8 (CCK-8) (Wako) according to the manufacturer's instructions to measure cell proliferation or suppression thereof by the test compound at varying concentrations. Briefly, 10 μl (1:2 dilution) of the CCK-8 reagent was added to each micro-culture plate well after which time the plates were incubated at […] for 3 hours. Absorbance at 450 nm was then measured using a microplate reader. Cell viability and proliferation for the IL-3-supplemented and FGF-5-supplemented groups was calculated as a measure of the optical density (OD) of cells treated with a test compound relative to the OD of the respective untreated controls, excluding the OD of blank controls (media only). Dose response curves were plotted and the respective inhibitory concentrations (IC50) for the test compounds were determined.
SMILES,relative ALP activity of DP cells treated FGF-5 [1],FGF-5-inhibitory activity ranked from most active to least active by DP-ALP assay [1],FGF-5-inhibitory activity (in words) [2],Suppression of FGF-5-dependent cell proliferation and viability [2],FGF-5 Specificity IL-1/FGF-5 [2],FGF-5-inhibitory activity (in words) ([2]; listed as (−)-terpinen-4-ol)
"CC1=CCC(O)(C(C)C)CC1 (racemic) [(±)-4-Terpinen-4-ol, 1-Isopropyl-4-methyl-3-cyclohexen-1-ol]",increased relative ALP activity,Piperitone>(−)-terpinen-4-ol>(±)-Terpinen-4β-Terpineol> (+)-Terpinen-4-ol > Linalyl Acetate,potent FGF-5-inhibitory active substances,–,–,–
"CC1=CC[C@](O)(C(C)C)CC1 [(+)-4-Terpinen-4-ol, (1S)-1-Isopropyl-4-methyl-3-cyclohexen-1-ol]",increased relative ALP activity,Piperitone>(−)-terpinen-4-ol>(±)-Terpinen-4β-Terpineol> (+)-Terpinen-4-ol > Linalyl Acetate,potent FGF-5-inhibitory active substances,Suppression of FGF-5-dependent cell proliferation and viability was observed,9.1>,–
"CC1=CC[C@@](O)(C(C)C)CC1 [(−)-4-Terpinen-4-ol, (R)-1-Isopropyl-4-methyl-3-cyclohexen-1-ol]",high alkaline phosphatase activity; also recorded: higher alkaline phosphatase activity in dermal papillae than a racemic mixture of terpinen-4-al or (+)-Terpinen-4-ol; also recorded: increased relative ALP activity,Piperitone>(−)-terpinen-4-ol>(±)-Terpinen-4β-Terpineol> (+)-Terpinen-4-ol > Linalyl Acetate,potent FGF-5-inhibitory active substances,Suppression of FGF-5-dependent cell proliferation and viability was observed,2>,high FGF-5 inhibitory activity; also recorded: higher FGF-5 inhibitory activity than (+)-terpinen-4-ol
"CC(=O)OC/C=C(\C)CCC=C(C)C [Geranyl acetate, (2E)-3,7-Dimethyl-2,6-octadien-1-yl acetate]",–,–,–,Suppression of FGF-5-dependent cell proliferation and viability was observed,8 (BR),–
"C=CC(C)(O)CCC=C(C)C (stereo not drawn) [Linalool, 3,7-Dimethyl-1,6-octadien-3-ol]",–,–,–,Suppression of FGF-5-dependent cell proliferation and viability was observed,30> (BR),–
"C=CC(C)(CCC=C(C)C)OC(C)=O (stereo not drawn) [Linalyl acetate, 3,7-Dimethyl-1,6-octadien-3-yl acetate]",–,Piperitone>(−)-terpinen-4-ol>(±)-Terpinen-4β-Terpineol> (+)-Terpinen-4-ol > Linalyl Acetate,potent FGF-5-inhibitory active substances,Suppression of FGF-5-dependent cell proliferation and viability was observed,–,–
"CCCCCCCCC=O [Nonanal, reference compound]",–,–,potent FGF-5-inhibitory active substances,–,9,–
"C=C(C)C1CC=C(C)C(O)C1 (stereo not drawn) [l-Carveol, 2-Methyl-5-(1-methylethenyl)-2-cyclohexen-1-ol]",–,–,–,Suppression of FGF-5-dependent cell proliferation and viability was observed,2,–
"CC1=CCC(C(C)(C)O)CC1 (stereo not drawn) [α-Terpineol, 2-(4-Methyl-3-cyclohexen-1-yl)-2-propanol]",increased relative ALP activity,Piperitone>(−)-terpinen-4-ol>(±)-Terpinen-4β-Terpineol> (+)-Terpinen-4-ol > Linalyl Acetate,potent FGF-5-inhibitory active substances,Suppression of FGF-5-dependent cell proliferation and viability was observed,5>,–
